Source: ChEMBL document CHEMBL3507680, “University of Dundee, Gates Library screen for HepG2 cell viability”

Assay: Human HepG2 cell viability assay in 384 well format
Type: toxicity, cell-based
Set-up: dose 125 nL, time 70.5 hour; cytotoxicity at 70.5 h: concentration not given beside the values
Settings: HepG2 cells, read-out: Inhibition

| Compound | cytotoxicity at 70.5 h [%] |
| --- | --- |
| COc1ccc(C2CC(=O)Nc3c2nc2n3CCCC2)cc1O (stereo unspecified) | -15.2 |
| COCCNC(=O)C[C@@H]1COC[C@H]2CN(CC3CCOCC3)C[C@@H]12 | 1.35 |
| Cc1cc(C)n(CCCN(C)C(=O)CN2CC3(CCNCC3)OC2=O)n1 | -8.19 |
| O=C(c1ccnc(C2CCNCC2)c1)N1CCCC1 | 7.01 |
| Cn1ncc2c1C(COCC1CC1)N(Cc1ccoc1)CC2 (stereo unspecified) | -19.6 |
| COCc1nc(C(=O)N2CCCC2c2noc(C)n2)cs1 (stereo unspecified) | -9.63 |
| CCc1nnc2n1CCN(c1nc3ccccc3o1)C2 | -7.72 |
| CN(CC1Cc2ccccc2CN1C)C(=O)CSc1ccccn1 (stereo unspecified) | -15.7 |
| O=C(N1CCCC1)N1CCN(CC2CC2)c2ncccc2C1 | 6.34 |
| Cc1nc(COCC2CN(C(N)=O)Cc3nccn3C2)cs1 (stereo unspecified) | -5.1 |
| COCc1ncc(CN2CCC3(CCNCC3)CC2)cn1 | -2.36 |
| CN(C)c1nc2c(c(=O)[nH]1)CCN(C(=O)C1CCCO1)C2 (stereo unspecified) | -8.42 |
| O=C(Cn1ccc2sccc2c1=O)NCc1ccc(F)cc1 | -9.4 |
| O=C(c1ccsc1)N1CCC(Nc2cccnn2)CC1 | -3.37 |
| O=C(O)CCc1cc2n(n1)CCN(Cc1cnc(N3CCCC3)nc1)C2 | -2.38 |
| COCCc1noc(CN2CCCC2c2c(C)nn(C)c2C)n1 (stereo unspecified) | -8.48 |
| O=C(O)C1c2nc[nH]c2CCN1Cc1ccc(-c2ccccc2)s1 (stereo unspecified) | -4.04 |
| C[C@@H]1CN(C(=O)Nc2cccc(OC(F)F)c2)CC(C(N)=O)O1 (stereo partly specified) | -1.07 |
| Cc1occc1C(=O)N1CCC2(CC1)CN(Cc1nccs1)CCO2 | 7.01 |
| CC(C)(C)OC(=O)NC(C)(C)c1noc(CSc2nncs2)n1 | 25.7 |
| Cc1cccc(C(=O)N2CC[C@@H]3[C@H]2CCC(=O)N3c2ccccc2)n1 | 17.8 |

| Compound | cytotoxicity at 70.5 h [%] |
| --- | --- |
| CCC(NC(=O)c1cnc(N(C)C)nc1C)c1ccncc1 (stereo unspecified) | -6.22 |
| CC(O)CNC(=O)NCCCN1CCN(c2ncccn2)CC1 (stereo unspecified) | -6.22 |
| OCCN(Cc1ccccc1)Cc1nc(-c2ccc3c(c2)OCO3)no1 | -9.5 |
| COCCn1ccnc1C1CCCN(C(=O)c2ccncc2F)C1 (stereo unspecified) | 11 |
| COc1ccccc1C(=O)NCCCN1CCCC1C(=O)N(C)C (stereo unspecified) | -14.3 |
| Cn1nccc1-c1cnc2n1CCNC21CCN(C(=O)C2(C)CC2)CC1 | -9.28 |
| Cc1cccc(C(=O)N(C)CC(=O)N2CCCC2)c1C | -14.8 |
| O=C(NC1CCCN(c2ccc(OC(F)F)cc2)C1)c1c[nH]nn1 (stereo unspecified) | 18.5 |
| COCCOc1ccccc1C(=O)N(C)Cc1ncc(C)c(OC)c1C | -5.65 |
| CC(C)Oc1ncccc1CNC(=O)c1ccc(=O)[nH]n1 | -3.21 |
| O=C(O)[C@]12CCCN(Cc3ccsc3)C[C@H]1CN(c1ncccn1)C2 | 1.99 |
| COc1cc(CNc2cc(-c3ccoc3C)nn2CCO)ccc1F | 11.9 |
| COCc1nc2cc(NCc3cc[nH]n3)ccc2o1 | -2.44 |
| CC(C)(O)C1CCN(C(=O)Nc2nc(-c3ccccc3)ns2)CC1 | -4.79 |
| Cc1ccnn1CCC(=O)N1C[C@@H](O)[C@H](Oc2cccc(F)c2)C1 | -2.79 |
| O=C(O)c1nnn(-c2ccc(Cl)c(C(F)(F)F)c2)c1-c1ccncc1 | -26.7 |
| O=C(c1cnc(O)cn1)N1CCCC1c1nc2cc(F)ccc2[nH]1 (stereo unspecified) | -4.45 |
| OCc1ccc(CN(CCCn2ccnc2)Cc2ccncc2)o1 | -4.15 |
| CNC(=O)C1Cn2ccnc2C2(CCN(Cc3nccs3)CC2)O1 (stereo unspecified) | 10.7 |
| CCOCCN1C[C@H](C(=O)Nc2cccnc2)[C@@H]2CCO[C@@H]2C1 | -4.15 |
| Cc1nn(C)c(N2CCOCC2)c1CNCc1cscn1 | -9.09 |

| Compound | cytotoxicity at 70.5 h [%] |
| --- | --- |
| CC(=O)N1CCN(CC2CCOc3ccccc3C2)CC1 (stereo unspecified) | -1.42 |
| O=C(Nc1ccc(Cl)cn1)C1CCN(CCc2ccccn2)CC1 | -1.68 |
| Cc1nc2n(n1)CC(NCCc1cccs1)CC2 (stereo unspecified) | 0.958 |
| Cc1cccc2cc(CN3CCC(N4CCOCC4)CC3)c(=O)[nH]c12 | -5.31 |
| Cc1ccc2cnn(CCC(=O)Nc3nc(C)c(C)s3)c2c1 | 4.56 |
| CCS(=O)(=O)NCC1OCCc2cn(CC3CCOCC3)nc21 (stereo unspecified) | 11.8 |
| CCNc1nc(C)c(C(=O)N2CCN(c3ncccc3C)CC2)s1 | -4.75 |
| CSC(C)C(=O)NCc1ccnc(N2CCN(C)CC2)c1 (stereo unspecified) | -7.04 |
| O=C(c1cc(Cl)c[nH]1)N1CCCC(c2cc(C(F)(F)F)[nH]n2)C1 (stereo unspecified) | 3.82 |
| CC(=O)N1CC(=O)N(c2cnn(C)c2)CC12CCN(CC1CC1)C2 (stereo unspecified) | 1.31 |
| Cc1cccc(NC(=O)Nc2c[nH]c(=O)[nH]c2=O)c1C | -1.56 |
| Cc1nc(CN(C)C2CCN(CCC(=O)N3CCOCC3)C2)no1 (stereo unspecified) | 15.9 |
| COCCN(Cc1nc2c(cnn2C)c(=O)[nH]1)C(C)c1ccccc1 (stereo unspecified) | -2.95 |
| CC(C)c1nnc2n1CCN(C(=O)c1cccc(C(F)(F)F)c1)C2 | 6.51 |
| COc1cc(C)nc(N2CCN(C(=O)c3ccccc3C)CC2)n1 | 43.9 |
| Cc1nc(Cn2cncc(Br)c2=O)no1 | 6.27 |
| Cc1ccc(CNCC2CCCn3ccnc32)s1 (stereo unspecified) | -4.1 |
| CC(=O)N[C@@H]1C[C@H](c2ccc(OCCO)cc2)OC2(CCOCC2)C1 | 7.41 |
| CS(=O)(=O)c1ccc(NCCC2CCCO2)c(S(C)(=O)=O)c1 (stereo unspecified) | -16.8 |
| CCN1CCN(S(=O)(=O)c2cc(C)c(C)cc2Br)CC1 | -6.61 |
| Cc1csc2c(C3CCCN(C(=O)CCn4ccnc4)C3)nc(C)n12 (stereo unspecified) | 17.3 |

| Compound | cytotoxicity at 70.5 h [%] |
| --- | --- |
| CNc1nc(C(=O)N2CCCC(c3nccn3CC3CCC3)C2)cs1 (stereo unspecified) | 8.97 |
| OCc1ccncc1NCc1cnc(-c2ccccn2)s1 | 0.118 |
| COC(=O)c1cccn1C1CCN(C(=O)c2ccc(C)cc2O)CC1 | -8.93 |
| CCc1nc(CN2CCCC(NCCn3cncn3)C2)no1 (stereo unspecified) | -8.1 |
| O=C1CCC(c2nc(C3CCN(C(=O)Cc4cccs4)CC3)no2)N1 (stereo unspecified) | -6.58 |
| Cc1cc(C(C)NC(=O)c2c[nH]c(=O)c(Cl)c2)c(C)o1 (stereo unspecified) | -1.21 |
| CCN(CCc1nccs1)C(=O)c1ccco1 | -7.04 |
| O=C(CCc1cnn(-c2ccccc2)c1)N1CCCC(n2cccn2)C1 (stereo unspecified) | 6.67 |
| O=S(=O)(NC1CCCCC12OCCO2)c1cc(Cl)cc(Cl)c1 (stereo unspecified) | -3.17 |
| COc1ccc(C(=O)N2CCC(Oc3ccccc3C)(C(=O)O)CC2)o1 | -3.87 |
| CCO[C@H]1CO[C@@]2(CCN(Cc3ccc4c(c3)OCO4)C2)C1 | -9.21 |
| CCc1nc(CN2CC[C@@](O)(CCOC)[C@H](C)C2)cs1 | 17.7 |
| Cc1occc1C(=O)N1CCCC1c1ccc(C(=O)N2CCOCC2)s1 (stereo unspecified) | 9.73 |
| CCc1n[nH]c(SCC(=O)N2C[C@@H]3CC[C@H](C2)N(CC=C(C)C)C3)n1 | 0.686 |
| O=C(COCc1ccccc1Cl)Nc1ccnn1CC1CCOC1 (stereo unspecified) | -18.3 |
| CC(C)(C)S(=O)(=O)CCNC(=O)c1ccc2ccccc2c1 | 0.161 |
| COC(=O)CN(C(=O)c1ccc(Cl)cn1)c1cccc(F)c1 | -0.717 |
| CC(=O)N1CCCN(Cc2cc(F)cc(Br)c2)CC1 | 21 |
